How the values were obtained:
Format in all cases: biochemical
[1] = target: PLK3 (Homo sapiens, UniProt Q9H4B4); experiment: PLK TR-FRET peptide assay, PLK3; settings: GST-PLK3, 15 min reaction, read-out: Plk3 IC50
[2] = target: PLK1 (Homo sapiens, UniProt P53350); experiment: PLK TR-FRET peptide assay, PLK1; settings: GST-PLK1, 60 min reaction
[3] = target: PLK2 (Homo sapiens, UniProt Q9NYY3); experiment: PLK TR-FRET peptide assay, PLK2; settings: for IC50: PLK TR-FRET peptide assay, GST-PLK2, 60 min reaction, read-out: Plk2 IC50; for relative PLK2 activity of the enantiomers: compared with the opposite enantiomer
Chain of PLK2 (Q9NYY3 whole entry): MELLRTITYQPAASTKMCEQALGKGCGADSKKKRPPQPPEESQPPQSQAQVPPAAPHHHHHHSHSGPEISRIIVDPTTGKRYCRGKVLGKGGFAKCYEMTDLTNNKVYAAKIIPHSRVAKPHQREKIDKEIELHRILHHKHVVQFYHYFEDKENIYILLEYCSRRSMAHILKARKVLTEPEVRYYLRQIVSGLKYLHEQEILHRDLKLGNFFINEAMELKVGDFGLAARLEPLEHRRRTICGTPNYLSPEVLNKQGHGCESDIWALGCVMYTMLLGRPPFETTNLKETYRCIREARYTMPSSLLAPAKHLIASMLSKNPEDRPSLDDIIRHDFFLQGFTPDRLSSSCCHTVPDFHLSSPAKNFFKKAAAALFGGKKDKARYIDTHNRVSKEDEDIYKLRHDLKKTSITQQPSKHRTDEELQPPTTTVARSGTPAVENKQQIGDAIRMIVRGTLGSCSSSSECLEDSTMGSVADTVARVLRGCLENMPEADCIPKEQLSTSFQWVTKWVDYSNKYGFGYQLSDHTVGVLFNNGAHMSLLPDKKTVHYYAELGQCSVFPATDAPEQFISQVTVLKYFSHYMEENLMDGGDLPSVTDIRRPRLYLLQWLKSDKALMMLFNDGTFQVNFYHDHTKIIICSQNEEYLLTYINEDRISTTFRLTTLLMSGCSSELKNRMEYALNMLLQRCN

Chain of PLK1 (P53350 whole entry): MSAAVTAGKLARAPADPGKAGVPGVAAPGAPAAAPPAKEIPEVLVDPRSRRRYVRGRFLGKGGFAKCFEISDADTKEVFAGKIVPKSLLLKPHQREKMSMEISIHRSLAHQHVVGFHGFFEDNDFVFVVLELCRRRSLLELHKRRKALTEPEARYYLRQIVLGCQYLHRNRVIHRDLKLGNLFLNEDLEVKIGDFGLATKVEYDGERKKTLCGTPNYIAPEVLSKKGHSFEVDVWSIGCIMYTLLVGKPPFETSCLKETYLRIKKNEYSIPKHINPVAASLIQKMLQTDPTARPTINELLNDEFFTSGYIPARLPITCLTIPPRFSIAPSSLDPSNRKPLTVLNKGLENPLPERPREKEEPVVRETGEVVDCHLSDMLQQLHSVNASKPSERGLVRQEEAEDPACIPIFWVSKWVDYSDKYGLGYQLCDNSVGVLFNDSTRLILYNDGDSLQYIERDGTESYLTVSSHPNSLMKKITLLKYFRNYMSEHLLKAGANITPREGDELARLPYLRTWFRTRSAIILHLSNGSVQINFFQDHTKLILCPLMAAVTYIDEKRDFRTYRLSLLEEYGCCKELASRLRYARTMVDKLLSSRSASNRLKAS
Chain of PLK3 (Q9H4B4 whole entry): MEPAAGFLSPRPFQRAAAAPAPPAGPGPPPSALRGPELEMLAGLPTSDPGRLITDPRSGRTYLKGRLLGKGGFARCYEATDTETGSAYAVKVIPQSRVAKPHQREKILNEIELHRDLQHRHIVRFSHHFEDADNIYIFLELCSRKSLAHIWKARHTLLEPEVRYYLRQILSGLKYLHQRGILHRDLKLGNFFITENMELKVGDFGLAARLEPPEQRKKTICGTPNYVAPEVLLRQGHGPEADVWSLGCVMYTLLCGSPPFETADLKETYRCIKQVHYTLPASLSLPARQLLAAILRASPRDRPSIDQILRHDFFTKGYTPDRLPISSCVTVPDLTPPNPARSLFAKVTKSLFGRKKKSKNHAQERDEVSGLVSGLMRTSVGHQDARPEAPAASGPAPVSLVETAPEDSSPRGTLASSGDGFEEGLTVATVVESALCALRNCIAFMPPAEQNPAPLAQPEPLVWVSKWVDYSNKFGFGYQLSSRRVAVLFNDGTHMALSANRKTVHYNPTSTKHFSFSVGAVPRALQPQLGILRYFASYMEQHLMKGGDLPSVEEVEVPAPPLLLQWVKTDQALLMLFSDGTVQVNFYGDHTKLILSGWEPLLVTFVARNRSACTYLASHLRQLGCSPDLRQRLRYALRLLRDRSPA

IC50 [1] | IC50 [2] | IC50 [3] | relative PLK2 activity of the enantiomers [3] | Structure (SMILES)
> 50 µM | 1 to 10 µM | 1 to 10 µM | – | CC[C@@H]1C(=O)N(C)c2cnc(-c3cccc(C(=O)N(C)C)c3)nc2N1C1CCCC1 [Example 57, (R)-3-(8-cyclopentyl-7-ethyl-5-methyl-6-oxo-5,6,7,8-tetrahydropteridin-2-yl)-N,N-dimethylbenzamide]
10 to 50 µM | 1 to 10 µM | < 1 µM | – | CC[C@@H]1C(=O)N(C)c2cnc(-n3ccnc3-c3ccc(F)c(F)c3)nc2N1C1CCC1 [Example 48, (R)-8-cyclobutyl-2-(2-(3,4-difluorophenyl)-1H-imidazol-1-yl)-7-ethyl-5-methyl-7,8-dihydropteridin-6(5H)-one]
< 1 µM | < 1 µM | < 1 µM | – | CC[C@@H]1C(=O)N(C)c2cnc(-n3ncnc3-c3ccccc3)nc2N1C1CCC1 [Example 208, (R)-8-cyclobutyl-7-ethyl-5-methyl-2-(5-phenyl-1H-1,2,4-triazol-1-yl)-7,8-dihydropteridin-6(5H)-one]
> 50 µM | 10 to 50 µM | 10 to 50 µM | – | CC[C@@H]1C(=O)N(C)c2cnc(-c3ccncc3NC(=O)CC(C)(C)C)nc2N1C1CCCC1 [Example 108, (R)—N-(4-(8-cyclopentyl-7-ethyl-5-methyl-6-oxo-5,6,7,8-tetrahydropteridin-2-yl)pyridin-3-yl)-3,3-dimethylbutanamide]
10 to 50 µM | < 1 µM | < 1 µM | – | CC[C@@H]1C(=O)N(C)c2cnc(-c3ccnc(N(C)C)c3)nc2N1C1CCCC1 [Example 21, (R)-8-cyclopentyl-2-(2-(dimethylamino)pyridin-4-yl)-7-ethyl-5-methyl-7,8-dihydropteridin-6(5H)-one]
> 50 µM | > 50 µM | 10 to 50 µM | – | [2H]C([2H])([2H])N1C(=O)[C@H](C([2H])([2H])C([2H])([2H])[2H])N(C([2H])(C([2H])([2H])[2H])C([2H])([2H])[2H])c2nc(-n3ccnc3-c3cc(F)cc(F)c3)ncc21 [Example 178, (S)-2-(2-(3,5-difluorophenyl)-1H-imidazol-1-yl)-7-perdeuteroethyl-8-perdeuteroisopropyl-5-trideuteromethyl-7,8-dihydropteridin-6(5H)-one]
> 50 µM | > 50 µM | 10 to 50 µM | – | CC[C@@H]1C(=O)N(C)c2cnc(-c3cccc(OCc4ccccc4)c3)nc2N1C1CCCC1 [Example 72, (R)-2-(3-(benzyloxy)phenyl)-8-cyclopentyl-7-ethyl-5-methyl-7,8-dihydropteridin-6(5H)-one]

Second part, the compound before the results:

Structure (SMILES) | IC50 [1] | IC50 [2] | IC50 [3] | relative PLK2 activity of the enantiomers [3]
CC[C@@H]1C(=O)N(C)c2cnc(-n3ccnc3-c3cnccn3)nc2N1C1CC1 [Example 141, (R)-8-cyclopropyl-7-ethyl-5-methyl-2-(2-(pyrazin-2-yl)-1H-imidazol-1-yl)-7,8-dihydropteridin-6(5H)-one] | > 50 µM | > 50 µM | 1 to 10 µM | –
CC[C@@H]1C(=O)N(C)c2cnc(-n3ccnc3-c3ccc(F)c(F)c3)nc2N1C1CCOC1 (stereo partly drawn) [Example 191, (7R)-2-(2-(3,4-difluorophenyl)-1H-imidazol-1-yl)-7-ethyl-5-methyl-8-(tetrahydrofuran-3-yl)-7,8-dihydropteridin-6(5H)-one] | 10 to 50 µM | 1 to 10 µM | < 1 µM | –
CC[C@@H]1C(=O)N(C)c2cnc(-c3ccncc3CNC(=O)OC)nc2N1C(C)C [Example 128, (R)-methyl (4-(7-ethyl-8-isopropyl-5-methyl-6-oxo-5,6,7,8-tetrahydropteridin-2-yl)pyridin-3-yl)methylcarbamate] | 10 to 50 µM | 10 to 50 µM | 1 to 10 µM | –
CC[C@@]12CCCN1c1nc(-n3ccnc3-c3cnc4ccccc4c3)ncc1N(C)C2=O [Example 241, (S)-6a-ethyl-5-methyl-2-(2-(quinolin-3-yl)-1H-imidazol-1-yl)-6a,7,8,9-tetrahydropyrrolo[2,1-h]pteridin-6(5H)-one] | > 50 µM | 10 to 50 µM | < 1 µM | –
CC[C@@]12CCCCN1c1nc(-n3ccnc3-c3cccc(F)c3)ncc1N(C)C2=O [Example 264, (S)-6a-ethyl-2-(2-(3-fluorophenyl)-1H-imidazol-1-yl)-5-methyl-7,8,9,10-tetrahydro-5H-pyrido[2,1-h]pteridin-6(6aH)-one] | 10 to 50 µM | 1 to 10 µM | < 1 µM | more active compound
CN1C(=O)[C@H](CC(F)(F)F)N(CCC(F)(F)F)c2nc(-n3ccnc3)ncc21 [Example 302, (S)-2-(1H-imidazol-1-yl)-5-methyl-7-(2,2,2-trifluoroethyl)-8-(3,3,3-trifluoropropyl)-7,8-dihydropteridin-6(5H)-one] | > 50 µM | > 50 µM | 10 to 50 µM | –
CC[C@@H]1C(=O)N(C)c2cnc(-c3ccncc3CNS(=O)(=O)c3ccccc3)nc2N1C(C)C [Example 136, (R)—N-((4-(7-ethyl-8-isopropyl-5-methyl-6-oxo-5,6,7,8-tetrahydropteridin-2-yl)pyridin-3-yl)methyl)benzenesulfonamide] | > 50 µM | 10 to 50 µM | 1 to 10 µM | –
CC[C@@H]1C(=O)N(C)c2cnc(-c3ccncc3CN)nc2N1C1CCCC1 [Example 105, (R)-2-(3-(aminomethyl)pyridin-4-yl)-8-cyclopentyl-7-ethyl-5-methyl-7,8-dihydropteridin-6(5H)-one] | > 50 µM | 10 to 50 µM | 10 to 50 µM | –
CC[C@@H]1C(=O)N(C)c2cnc(-c3ccncc3NS(C)(=O)=O)nc2N1C(C)C [Example 119, (R)—N-(4-(7-ethyl-8-isopropyl-5-methyl-6-oxo-5,6,7,8-tetrahydropteridin-2-yl)pyridin-3-yl)methanesulfonamide] | > 50 µM | > 50 µM | 1 to 10 µM | –
CC[C@@H]1C(=O)N(C)c2cnc(-n3ccnc3N3CCOCC3)nc2N1C1CCCC1 [Example 87, (R)-8-cyclopentyl-7-ethyl-5-methyl-2-(2-morpholino-1H-imidazol-1-yl)-7,8-dihydropteridin-6(5H)-one] | > 50 µM | 1 to 10 µM | 1 to 10 µM | –
CC[C@]12CCCCN1c1nc(-n3ccnc3-c3ccccc3)ncc1N(C)C2=O [Example 263, (R)-6a-ethyl-5-methyl-2-(2-phenyl-1H-imidazol-1-yl)-7,8,9,10-tetrahydro-5H-pyrido[2,1-h]pteridin-6(6aH)-one] | > 50 µM | > 50 µM | 10 to 50 µM | –
CC[C@@]12CCCCN1c1nc(-n3ccnc3-c3ccccc3)ncc1N(C)C2=O [Example 262, (S)-6a-ethyl-5-methyl-2-(2-phenyl-1H-imidazol-1-yl)-7,8,9,10-tetrahydro-5H-pyrido[2,1-h]pteridin-6(6aH)-one] | 1 to 10 µM | 1 to 10 µM | < 1 µM | more active compound
CC[C@@H]1C(=O)N(C)c2cnc(-n3ccnc3-c3ccc(F)cc3Cl)nc2N1CCC(F)(F)F [Example 282, (R)-2-(2-(2-chloro-4-fluorophenyl)-1H-imidazol-1-yl)-7-ethyl-5-methyl-8-(3,3,3-trifluoropropyl)-7,8-dihydropteridin-6(5H)-one] | 10 to 50 µM | 10 to 50 µM | < 1 µM | –
